Results on 1 molecule are retold here after paper PMC5317004 (Scientific Reports, 2017).

The assay relates to chimeric α7-GluClβR. Nature of the assay: IVM added after activation by ACh: kinetics and extent of current decline (whole-cell patch clamp). It is filed as cell-based, chick nAChR α7 / C. elegans GluClβ. On the procedure:
Following a further wash (for a minute), the same cell was challenged again with a 5-μM-IVM solution (in 0.01% DMSO; red bar, arrow and trace). Recordings were performed at −60 mV. (B) Time constant of current decline (τd). Values of τd were determined by exponential fits to the declining phase of the currents using Eq. 3. […] Error bars correspond to SEM of N = 6 and N = 5 cells for recordings at −60 mV and −20 mV, respectively. Paired, two-tailed Student’s t-tests indicate that for not significant (“ns”) P > 0.3, and ** 0.001 < P < 0.005.
Figure 8 The inhibition of ACh-elicited currents by addition of IVM is irreversible. […] (B) Representative currents for the same experiment as in A, but with the exception of IVM (0.5 μM) addition after the ACh-elicited current reached to its peak (IP1). Inset, magnification of the indicated segment of the current trace. In both panels A and B, black bars above the current traces indicate ACh or IVM applications. […] Error bars correspond to SEM. Unpaired, two-tailed Student’s t-tests indicate *** P < 0.0001.
The declining phase of the currents was fitted with an exponential time course to give the time constant of current decline by using equation 3, […]
I is the current, IP is the peak of the current, IS is the steady state current, t is the time, and τ is the time constant of current decline. […]
Supplementary Materials and Methods
The structural mo del of the chi meric α7-GluClβR was built based on th e methodologies published previously1,2, and the sequence of the chimeric subunit is presented in […]
DNA construct and preparation of cells for electrophysiological experiments The cDNA encoding the α7-GluClβ chimeric subunit was generated as described previously3, and was cloned into a pcDNA3.1 vector.
Chinese hamster ovary cells (CHO-K1, ATCC via Biological Industries Israel, Beit Haemek Ltd.) were cultured as performed previously2 in Dulbecco 's Modified E agle Med iu m (DMEM) containing 10% fetal calf serum (Biological Industries Israel Beit Haemek Ltd.), 2 mM glutamax, 100 Units/ml penicillin G and 100 μg/ml streptomycin, and grown in 5% CO2 at 37°C under 90-95% hu midity . CHO cells were seeded on glass coverslips (13-mm diameter) placed in a 24-multiwell plate. For the expression of the α7-GluClβR, cells were transiently transfected with the pcDNA3.1 plasmid containing the receptor’s ORF (200-600 ng per well) using transit-LT1 transfection reagent (Mirus, USA), according to the manufacturer’s protocol. pIRES-CD8 plas mid (200 ng per well) was also added to enable visualization of the ex pressing cells by beads coated with anti-CD8 antibodies (Invitrogen). For the expression of GluClβ ho mo mers, we used the pcDNA3.1 plas mid containing the GluClβ-subunit ORF (600-1000 ng per well), pIRES-CD8 plas mid (200 ng per well) and th e X-tremeGENE HP DNA Transfection Reagent (Roche Life Science). Recordings were performed 48-72 hours following transfection.
Whole-cell patch clamp recordings
Recordings were performed in the aforementioned CHO cells, as previously described1,2. Whole-cell patch clamp experiments were performed with normal external solution (NES) contained (in millimolar): 140 NaCl, 2.8 KCl, 2 CaCl2, 2 MgCl2, 10 glucose and 10 HEPES, adjusted to pH 7.35 with NaOH (310 mOsM). The pipette solution contained […]
(in millimolar): 130 KCl, 4 MgCl2, 4 Na2ATP, 1 EGTA and 10 HEPES, adjusted to pH 7.35 with KOH (290 mOsM). The osmolarity of these solutions was maintained by adding sucrose.
The electrode resistance was 6-10 MΩ when filled with the pipette solution. External solutions were applied onto the cell by using the VC-77SP fast-step system (Warner Instruments, CT, USA) combined with N2 pressure of 3-4 psi to produce laminar flow of the external solution onto the patched cell. All measurements were performed at 25 °C. The currents w ere measured with an Axopatch 200B patch-clamp amplifier (Molecular Devices, Sunnyvale, CA) and a Digidata 1440A interface (Molecular Devices). […]

The mark [1] stands for this setting: 30 μM ACh + 0.5 μM IVM, 9.6 sec, N = 10.

Structures are written as SMILES.

On to `CC[C@H](C)[C@H]1O[C@]2(CC[C@@H]1C)C[C@@H]1C[C@@H](C/C=C(\C)[C@@H](O[C@H]3C[C@H](OC)[C@@H](O[C@H]4C[C@H](OC)[C@@H](O)[C@H](C)O4)[C@H](C)O3)[C@@H](C)/C=C/C=C3\CO[C@@H]4[C@H](O)C(C)=C[C@@H](C(=O)O1)[C@]34O)O2` [IVM, Ivermectin], for which, under “5 μM IVM added after peak of 350 μM ACh response, −60 mV and −20 mV”, the “reduction of time constant of current decline (τd)” value is listed as “more than two folds”. Where the note is “30 μM ACh + 0.5 μM IVM”, the “τd1 amplitude percentage (%A)” value was 55 ± 10% and the “τd2 amplitude percentage (%A)” value is recorded as 45 ± 10%. Moreover, under setting [1], the “τd1, time constant of current decline” value was found to be 3370 ± 318 ms and the “τd2, time constant of current decline” value is recorded as 987 ± 120 ms. Further, the “time between the start of application and the onset of effect” value (six experiments as in Fig. 5A, 350 μM ACh, 5 μM IVM) turned out to be 132 ± 24 milliseconds.
